Results: patent US8487006B2, “Method of enhancing TGF-β signalling” (Auxagen, Inc., priority 2008, dated 2013)

Key:
wild-type mice = test: Wild-type mice treated with dynasore (organ pathology, coronary artery histology, TβR-II staining, plasma cholesterol); type: in vivo
Procedure: (§1) Wild-type and ApoE-null mice were treated with vehicle only (a, c) or 1 mg/kg dynasore (b, d) every two days for 8 weeks. The coronary arteries were removed from the animals and subjected to histological analysis by H & E staining (A) and indirect immunofluorescent staining for TβR-II(B). The asterisk (*) indicates the location of the lumen in coronary arteries. The arrow indicates the immunofluorescent staining of TβR-II in the aortic endothelium.
(§2) We hypothesize that TGF-β enhancers such as inhibitors of clathrin-dependent endocytosis may ameliorate atherosclerosis caused by cholesterol-induced suppression of TGF-β responsiveness in vascular cells^3,12. To test our hypothesis, we treated hypercholesterolemic ApoE-null mice with dynasore (1 mg/kg body weight) via intraperitoneal administration every two days for 8 weeks. We chose dynasore for two reasons. […] At 50 μM, it enhances TGF-β-stimulated expression of PAI-1 in these cell types by ˜4-5 fold, 2) Dynasore is the only inhibitor tested which alone is capable of stimulating PAI-1 expression. […] The plasma levels of cholesterol in wild-type mice treated with either vehicle only or dynasore were 120±10 and 125±20 mg/dl, respectively.
(§3) However, no TβR-II staining was found in the aortic endothelium and smooth muscle of coronary arteries in ApoE-null mice treated with vehicle only (FIG. 4Bc).

[1] = system: TβR-I and SARA at the plasma membrane in Mv1Lu cells; test: Co-localization and accumulation of TβR-I and SARA, immunofluorescent microscopy; type: cell-based; settings: 20 μM TFP, 10 mg/ml β-CD, 40 μM dynasore, 200 μM chloroquine, with 100 pM TGF-β1, 30 min
Procedure: Cells were pretreated with vehicle only or 20 μM TFP, 10 mg/ml β-CD, 40 μM dynasore (Dyn) and 200 μM chloroquine (CQ) at 37° C. for 1 h. Treated cells were then stimulated with and without 100 pM TGF-β1. After 30 min at 37° C., cells were fixed and analyzed by indirect immunofluorescent staining using antibody to TβR-I (panels 1-10) and SARA (panels 11-20), DAPI (nuclear) staining was also performed (panels 21-30). Merged staining is also shown (panels 31-40). Insets indicate the co-localization and accumulation of SARA and TβR-I at the plasma membrane.
TGF-β stimulates Smad2 phosphorylation by inducing association of TβR-I and SARA^6,7 (which serves as an anchor for Smad2), binding of Smad2 to SARA, and subsequent phosphorylation of Smad2 by TβR-I in the TβR-1-SARA-Smad2 complex. If clathrin-dependent endocytosis inhibitors enhance TGF-β-induced signaling (TGF-β-stimulated Smad2 phosphorylation) by increasing accumulation of TβR-I/TβR-II complexes at the coated pits, they should promote co-localization and accumulation of TβR-I and SARA at the plasma membrane. To test this, Mv1Lu cells were stimulated with 100 pM TGF-β1. After 30 min at 37° C., […] analyzed by immunofluorescent microscopy using antibodies to TβR-I and SARA. […] This is consistent with the previous report that TGF-β enhances TGF-β receptor internalization^16.

[2] = system: PAI-1 expression in Chinese hamster ovary cells (CHO cells); test: TGF-β-stimulated expression of PAI-1 in CHO cells; type: cell-based; settings: dynasore 50 μM; CHO cells (unpublished results)
Procedure: as §2

[3] = system: hypercholesterolemic ApoE-null mice; test: Atherosclerosis in hypercholesterolemic ApoE-null mice (coronary artery histology, TβR-II staining, plasma cholesterol); type: in vivo
Procedure: as §1, §2, §3

[4] = system: PAI-1 expression in Mv1Lu cells; test: TGF-β1-stimulated expression of PAI-1 mRNA (Northern blot / real-time RT-PCR) in Mv1Lu cells; type: cell-based
Procedure: (A-G) Cells were pretreated with vehicle only or with several concentrations (as indicated) of β-CD (A,C), thioridazine (B), TFP (D), chloroquine (E), monensin (F) and MDC (G) at 37° C. for 1 h. Treated cells were then stimulated with 50 pM TGF-β1. After 2 h at 37° C., the mRNAs of PAI-1 and G3PDH (as control) in the cell lysates were analyzed by Northern blot (top) and quantified using a PhosphoImager (bottom) (A,B) or real-time RT-PCR (C to G). The TGF-β-stimulated expression of PAI-1 in cells treated with vehicle only was taken as 100% (A, B) or 1 fold (C to G) of control. […] (H) Cells were pretreated with several concentrations (as indicated) of dynasore at 37° C. for 1 h and then stimulated with 50 pM TGF-β1. After 2 h at 37° C., the mRNA of PAI-1 was quantitated by real-time RT-PCR. The relative level of PAI-1 mRNA in cells treated with TGF-β1 alone was taken as 1 (100%). Experiments were carried out in triplicate. The data shown is representative of 3 independent experiments.
The PAI-1 gene is one of the most studied genes responsive to TGF-β stimulation^4,5. The promotor region of the PAI-gene contains several Smad2/3 binding sites that have been used as the TGF-β responsive elements to enhance the expression of a reported gene^4,5. […] Cells were pretreated with vehicle only and several concentrations of β-CD, thioridazine, TFP, MDC, monensin and chloroquine at 37° C. for 1 h. Cells were then stimulated with 50 pM TGF-β1. After 2 h at 37° C., the relative levels of PAI-1 mRNA were analyzed by quantitative Northern blot analysis (FIGS. 3A and 3B) and real-time RT-PCR (FIG. 3C-3G).

[5] = system: PAI-1 expression in bovine aortic endothelial cells (BAEC cells); test: TGF-β-stimulated expression of PAI-1 in BAEC cells; type: cell-based; settings: dynasore 50 μM; BAEC cells (unpublished results)
Procedure: as §2

[6] = dynasore 1 mg/kg every two days for 8 weeks, indirect immunofluorescent staining

morphology of the coronary arteries (wild-type mice; dynasore 1 mg/kg every two days for 8 weeks, H & E staining): normal morphology
Compound: O=C(N/N=C/c1ccc(O)c(O)c1)c1cc2ccccc2cc1O [dynasore]
macroscopic or microscopic abnormality in the liver, heart, lung and kidney (wild-type mice; dynasore 1 mg/kg intraperitoneal every 2 days for 8 weeks): no apparent macroscopic or microscopic abnormality has been detected
co-localization and accumulation of TβR-I and SARA at the plasma membrane, co-treatment with TGF-β1 [1]: promoted co-localization and accumulation of TβR-I and SARA at the plasma membrane
enhancement of TGF-β-stimulated expression of PAI-1 [2]: 4-5 fold
TβR-II staining in the aortic endothelium of coronary arteries [3, 6]: appeared to restore the TβR-II staining
TβR-II staining in the smooth muscle near the endothelium [3, 6]: slight staining of TβR-II was found
effect on atherosclerosis ([3]; dynasore 1 mg/kg intraperitoneal every two days for 8 weeks): effectively ameliorates atherosclerosis
macrophages or foam cells in the endothelium of the coronary arteries ([3]; dynasore 1 mg/kg intraperitoneal every two days for 8 weeks, H & E staining): very few macrophages or foam cells were found
stimulation of PAI-1 expression by dynasore alone ([4]; dynasore 25 μM without TGF-β1, real-time RT-PCR): to the same extent as with 50 pM TGF-β1 alone
enhancement of TGF-β-stimulated expression of PAI-1 ([4]; dynasore 50 μM): 4-5 fold
enhancement of TGF-β1-stimulated PAI-1 expression ([4]; dynasore 50 μM, 50 pM TGF-β1 for 2 h, real-time RT-PCR): ~5 fold
enhancement of TGF-β-stimulated expression of PAI-1 [5]: 4-5 fold
